Data published in patent publication US6960597B2, “Aza-bridged-bicyclic amino acid derivatives as α4 integrin antagonists” (Orth-McNeil Pharmaceutical, Inc., priority 2000, dated 2005).
Read-outs that look alike come from different tables or passages of the source.

Tests used:
[1] = biological target: T1, human α4β7 (Homo sapiens, UniProt P13612+P26010); assay: α4β7-K562 Cell Adhesion Assay (α4β7 Mediated Adhesion/VCAM-1); type: cell-based
T1 construct: expressed in transfected cells
T1 sequence (P13612 34-1032): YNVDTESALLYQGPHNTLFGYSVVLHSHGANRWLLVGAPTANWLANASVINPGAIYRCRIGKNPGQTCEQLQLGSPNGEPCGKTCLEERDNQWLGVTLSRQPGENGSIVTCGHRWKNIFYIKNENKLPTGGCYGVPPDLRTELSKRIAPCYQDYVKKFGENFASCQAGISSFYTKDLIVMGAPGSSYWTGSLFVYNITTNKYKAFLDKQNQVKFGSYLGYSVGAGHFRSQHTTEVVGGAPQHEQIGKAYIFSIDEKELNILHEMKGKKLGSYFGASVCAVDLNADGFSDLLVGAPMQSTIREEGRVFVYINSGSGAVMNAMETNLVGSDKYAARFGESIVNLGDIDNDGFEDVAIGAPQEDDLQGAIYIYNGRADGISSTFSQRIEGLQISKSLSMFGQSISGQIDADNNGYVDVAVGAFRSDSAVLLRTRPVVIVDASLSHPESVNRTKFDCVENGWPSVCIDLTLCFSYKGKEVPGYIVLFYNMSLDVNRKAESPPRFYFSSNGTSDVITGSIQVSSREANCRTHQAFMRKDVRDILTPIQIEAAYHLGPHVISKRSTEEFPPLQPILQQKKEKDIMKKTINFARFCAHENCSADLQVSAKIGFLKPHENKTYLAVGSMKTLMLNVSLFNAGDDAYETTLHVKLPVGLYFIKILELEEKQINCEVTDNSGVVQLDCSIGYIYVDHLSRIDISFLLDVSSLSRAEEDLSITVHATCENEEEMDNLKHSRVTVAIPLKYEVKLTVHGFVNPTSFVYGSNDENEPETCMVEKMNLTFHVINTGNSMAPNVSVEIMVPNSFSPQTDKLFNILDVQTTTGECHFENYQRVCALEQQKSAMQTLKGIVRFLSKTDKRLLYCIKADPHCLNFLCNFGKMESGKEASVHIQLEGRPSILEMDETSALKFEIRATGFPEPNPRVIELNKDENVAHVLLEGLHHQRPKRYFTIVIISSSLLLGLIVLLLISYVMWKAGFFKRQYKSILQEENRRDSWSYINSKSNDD
T1 sequence (P26010 20-798): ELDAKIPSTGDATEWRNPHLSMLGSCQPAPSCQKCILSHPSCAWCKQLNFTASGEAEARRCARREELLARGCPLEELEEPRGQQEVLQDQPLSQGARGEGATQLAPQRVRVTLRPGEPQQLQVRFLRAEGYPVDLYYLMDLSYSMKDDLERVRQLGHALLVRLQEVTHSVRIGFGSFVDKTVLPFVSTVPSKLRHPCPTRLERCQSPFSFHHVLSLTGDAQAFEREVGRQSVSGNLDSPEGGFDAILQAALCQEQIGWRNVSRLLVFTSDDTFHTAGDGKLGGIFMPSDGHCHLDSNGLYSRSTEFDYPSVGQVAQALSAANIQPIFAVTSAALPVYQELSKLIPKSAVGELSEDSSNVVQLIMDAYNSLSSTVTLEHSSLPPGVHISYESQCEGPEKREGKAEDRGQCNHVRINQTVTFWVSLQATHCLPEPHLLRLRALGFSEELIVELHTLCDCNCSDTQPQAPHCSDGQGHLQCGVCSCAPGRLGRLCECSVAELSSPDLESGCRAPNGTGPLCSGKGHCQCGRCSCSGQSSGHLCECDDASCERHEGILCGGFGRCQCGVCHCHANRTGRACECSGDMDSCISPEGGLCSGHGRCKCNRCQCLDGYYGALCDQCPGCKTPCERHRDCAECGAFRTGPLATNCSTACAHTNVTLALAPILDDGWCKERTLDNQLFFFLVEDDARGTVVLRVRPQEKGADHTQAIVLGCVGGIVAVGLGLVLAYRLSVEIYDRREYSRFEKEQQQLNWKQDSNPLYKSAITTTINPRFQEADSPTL
Method in brief: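 K562 cells stably expressing human α4β7, labelled with 5 μM Calcein AM, adhered for 1 h at room temperature to plates coated with recombinant hVCAM-1 (4.0 μg/mL) in the presence of compound. After washing, cells were lysed in Tris/SDS. Bound cells were read by fluorescence at 485/530 nm.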

[2] = biological target: T2, α4β1 integrin receptor (Homo sapiens, UniProt P05556+P13612); assay: Ramos Cell Adhesion Assay (α4β1 Mediated Adhesion/VCAM-1); type: cell-based
T2 construct: Ramos Cell Adhesion Assay (α4β1 Mediated Adhesion/VCAM-1); endogenous in cells; host or cells: Ramos cells
Method in brief: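 Plates coated overnight at 4° C with recombinant hVCAM-1 (4.0 μg/mL, pH 9.0), then blocked with PBS/1% BSA. Ramos cells labelled with 5 μM Calcein AM adhered 1 h at room temperature with compound; after washing, cells were lysed in SDS and fluorescence read at 485/530 nm.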

[3] = Table IV, μM, read-out: Inhibition of Binding of K562 Cells to Immobilized VCAM-1 IC50
[4] = Table III, μM, read-out: Inhibition of Binding of Ramos Cells to Immobilized VCAM-1 IC50
[5] = Table IV, read-out: Inhibition of Binding of K562 Cells to Immobilized VCAM-1 IC50
[6] = Table III, read-out: Inhibition of Binding of Ramos Cells to Immobilized VCAM-1 IC50
[7] = Table I, racemic mixtures and resolved (S,S) and (R,S) diastereomers, read-out: Antagonist IC50 Activity α4β7
[8] = Table I, racemic mixtures and resolved (S,S) and (R,S) diastereomers, read-out: Antagonist IC50 Activity α4β1

T2 sequence (P05556 21-798, one chain of several): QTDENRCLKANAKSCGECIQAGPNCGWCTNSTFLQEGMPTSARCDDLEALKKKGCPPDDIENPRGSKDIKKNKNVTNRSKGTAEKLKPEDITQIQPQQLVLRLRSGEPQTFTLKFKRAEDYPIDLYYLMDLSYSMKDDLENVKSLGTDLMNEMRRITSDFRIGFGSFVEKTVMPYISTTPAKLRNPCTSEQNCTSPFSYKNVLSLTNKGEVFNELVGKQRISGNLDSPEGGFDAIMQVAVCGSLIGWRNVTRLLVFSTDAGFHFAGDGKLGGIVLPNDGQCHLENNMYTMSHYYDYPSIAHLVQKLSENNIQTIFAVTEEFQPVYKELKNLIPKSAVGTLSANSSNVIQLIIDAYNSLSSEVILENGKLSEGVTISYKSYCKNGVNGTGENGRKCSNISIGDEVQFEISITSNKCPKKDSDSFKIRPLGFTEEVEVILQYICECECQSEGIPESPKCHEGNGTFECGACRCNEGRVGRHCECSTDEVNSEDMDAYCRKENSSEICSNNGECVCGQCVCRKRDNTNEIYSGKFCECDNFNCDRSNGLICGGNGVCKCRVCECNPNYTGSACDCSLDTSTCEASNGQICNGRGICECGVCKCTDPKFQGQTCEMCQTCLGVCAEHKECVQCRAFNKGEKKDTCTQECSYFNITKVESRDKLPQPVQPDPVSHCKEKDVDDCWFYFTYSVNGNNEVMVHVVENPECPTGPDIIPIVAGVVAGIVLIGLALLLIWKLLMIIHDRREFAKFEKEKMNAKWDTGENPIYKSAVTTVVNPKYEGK

Row | Structure (SMILES) | IC50 [1, 3] [µM] | IC50 [1, 5] [µM] | IC50 [2, 6] [µM] | other results
1 | O=C(O)[C@H](Cc1ccc(OCc2c(Cl)cccc2Cl)cc1)NC(=O)[C@H]1C2CCC(CC2)N1S(=O)(=O)c1ccccc1 [Cpd 41, O-[(2,6-dichlorophenyl)methyl]-N-[[(3R)-2-(phenylsulfonyl)-2-azabicyclo[2.2.2]oct-3-yl]carbonyl]-L-tyrosine] | > 10 | – | – | IC50 [2, 4]: > 5 µM
2 | O=C(Nc1ccc(C[C@H](NC(=O)C2C3C=CC(CC3)N2S(=O)(=O)c2ccccc2)C(=O)O)cc1)c1c(Cl)cccc1Cl (stereo partly drawn) [Cpd 42, 4-[(2,6-dichlorobenzoyl)amino]-N-[[2-(phenylsulfonyl)-2-azabicyclo[2.2.2]oct-5-en-3-yl]carbonyl]-L-phenylalanine] | – | 0.279 | 0.022 | –
3 | O=C(Nc1ccc(C[C@H](NC(=O)C2C3CCC(CC3)N2S(=O)(=O)c2ccccc2)C(=O)O)cc1)c1c(F)cc(F)cc1F (stereo partly drawn) [Cpd 43, 4-[(2,4,6-trifluorobenzoyl)amino]-N-[[2-(phenylsulfonyl)-2-azabicyclo[2.2.2]oct-3-yl]carbonyl]-L-phenylalanine] | – | 0.442 | 0.103 | –
4 | CC(C)(C)Oc1ccc(C[C@H](NC(=O)C2C3CCC(CC3)N2S(=O)(=O)c2ccccc2)C(=O)O)cc1 (stereo partly drawn) [Cpd 45, O-(1,1-dimethylethyl)-N-[[2-(phenylsulfonyl)-2-azabicyclo[2.2.2]oct-3-yl]carbonyl]-L-tyrosine] | > 10 | – | 3.17 | –
5 | O=C(N[C@@H](CCc1ccccc1)C(=O)O)C1C2CCC(CC2)N1S(=O)(=O)c1ccccc1 (stereo partly drawn) [Cpd 46, α(S)-[[[2-(phenylsulfonyl)-2-azabicyclo[2.2.2]oct-3-yl]carbonyl]amino]-benzenebutanoic acid] | > 10 | – | – | IC50 [2, 4]: > 5 µM
6 | O=C(O)[C@H](Cc1ccc(N2C(=O)c3ccccc3C2=O)cc1)NC(=O)[C@@H]1C2CCC(CC2)N1S(=O)(=O)c1ccccc1 [Cpd 47a, 4-(1,3-dihydro-1,3-dioxo-2H-isoindol-2-yl)-N-[[(3S)-2-(phenylsulfonyl)-2-azabicyclo[2.2.2]oct-3-yl]carbonyl]-L-phenylalanine] | – | – | 0.026 | IC50 [1, 7]: 0.102 µM; IC50 [2, 8]: 0.026 µM
7 | O=C(O)c1ccccc1C(=O)Nc1ccc(C[C@H](NC(=O)[C@@H]2C3CCC(CC3)N2S(=O)(=O)c2ccccc2)C(=O)O)cc1 [Cpd 48, 4-[(2-carboxybenzoyl)amino]-N-[[(3S)-2-(phenylsulfonyl)-2-azabicyclo[2.2.2]oct-3-yl]carbonyl]-L-phenylalanine] | > 10 | – | – | IC50 [2, 4]: > 5 µM
8 | Cc1ccc(C)n1-c1ccc(C[C@H](NC(=O)C2C3CCC(CC3)N2S(=O)(=O)c2ccccc2)C(=O)O)cc1 (stereo partly drawn) [Cpd 49, 4-(2,5-dimethyl-1H-pyrrol-1-yl)-N-[[2-(phenylsulfonyl)-2-azabicyclo[2.2.2]oct-3-yl]carbonyl]-L-phenylalanine] | > 10 | – | – | IC50 [2, 4]: > 5 µM
9 | O=C(Nc1ccc(C[C@H](NC(=O)C2C3CCC(CC3)N2S(=O)(=O)c2ccccc2)C(=O)O)cc1)c1ccncc1 (stereo partly drawn) [Cpd 50, 4-[(4-pyridinylcarbonyl)amino]-N-[[2-(phenylsulfonyl)-2-azabicyclo[2.2.2]oct-3-yl]carbonyl]-L-phenylalanine] | – | 0.81 | 0.055 | –
10 | O=C(Nc1ccc(C[C@H](NC(=O)[C@@H]2C3CCC(CC3)N2S(=O)(=O)c2ccccc2)C(=O)O)cc1)c1ccncc1 [Cpd 50a, 4-[(4-pyridinylcarbonyl)amino]-N-[[(3S)-2-(phenylsulfonyl)-2-azabicyclo[2.2.2]oct-3-yl]carbonyl]-L-phenylalanine] | – | 0.223 | 0.054 | –
11 | O=C(N[C@@H](Cc1ccc(NS(=O)(=O)c2c(Cl)cccc2Cl)cc1)C(=O)O)C1C2CCC(CC2)N1S(=O)(=O)c1ccccc1 (stereo partly drawn) [Cpd 51, 4-[[(2,6-dichlorophenyl)sulfonyl]amino]-N-[[2-(phenylsulfonyl)-2-azabicyclo[2.2.2]oct-3-yl]carbonyl]-L-phenylalanine] | > 5 | – | 0.784 | –
12 | CN(C)C(=O)Oc1ccc(C[C@H](NC(=O)[C@@H]2C3CCC(CC3)N2S(=O)(=O)c2ccccc2)C(=O)O)cc1 [Cpd 52a, O-[(dimethylamino)carbonyl]-N-[[(3S)-2-(phenylsulfonyl)-2-azabicyclo[2.2.2]oct-3-yl]carbonyl]-L-tyrosine] | – | – | – | IC50 [1]: 0.436 µM; IC50 ([1]; read-out: Inhibition of Binding of K562 Cells to Immobilized VCAM-1 IC50, Table IV): 0.436 µM; IC50 ([2]; Antagonist IC50 Activity α4β1, Table I, racemic mixtures and resolved (S,S) and (R,S) diastereomers): 0.045 µM; IC50 ([2]; Inhibition of Binding of Ramos Cells to Immobilized VCAM-1 IC50, Table III): 0.04 µM
13 | CC(C)(C)OC(=O)N1CCC(C(=O)Nc2ccc(C[C@H](NC(=O)[C@@H]3C4CCC(CC4)N3S(=O)(=O)c3ccccc3)C(=O)O)cc2)CC1 [Cpd 53a, 4-[[[1-[(1,1-dimethylethoxy)carbonyl]-4-piperidinyl]carbonyl]amino]-N-[[(3S)-2-(phenylsulfonyl)-2-azabicyclo[2.2.2]oct-3-yl]carbonyl]-L-phenylalanine] | – | – | 0.219 | IC50 [1, 7]: 0.693 µM; IC50 [2, 8]: 0.219 µM
14 | O=C(Nc1ccc(C[C@H](NC(=O)C2C3CCC(CC3)N2S(=O)(=O)c2ccc(F)cc2)C(=O)O)cc1)c1c(Cl)cccc1Cl (stereo partly drawn) [Cpd 54, 4-[(2,6-dichlorobenzoyl)amino]-N-[[2-[(4-fluorophenyl)sulfonyl]-2-azabicyclo[2.2.2]oct-3-yl]carbonyl]-L-phenylalanine] | – | 0.118 | 0.146 | –
15 | COc1cccc(OC)c1C(=O)Nc1ccc(C[C@H](NC(=O)C2C3CCC(CC3)N2S(=O)(=O)c2ccc(F)cc2)C(=O)O)cc1 (stereo partly drawn) [Cpd 55, 4-[(2,6-dimethoxybenzoyl)amino]-N-[[2-[(4-fluorophenyl)sulfonyl]-2-azabicyclo[2.2.2]oct-3-yl]carbonyl]-L-phenylalanine] | – | 0.091 | 0.303 | –
16 | O=C(N[C@@H](Cc1ccc(OC(=O)N2CCOCC2)cc1)C(=O)O)C1C2CCC(CC2)N1S(=O)(=O)c1ccccc1 (stereo partly drawn) [Cpd 56, O-(4-morpholinylcarbonyl)-N-[[2-(phenylsulfonyl)-2-azabicyclo[2.2.2]oct-3-yl]carbonyl]-L-tyrosine] | – | 0.047 | 0.139 | –
17 | CC(C)N(C(=O)Oc1ccc(C[C@H](NC(=O)C2C3CCC(CC3)N2S(=O)(=O)c2ccccc2)C(=O)O)cc1)C(C)C (stereo partly drawn) [Cpd 57, O-[[bis(1-methylethyl)amino]carbonyl]-N-[[2-(phenylsulfonyl)-2-azabicyclo[2.2.2]oct-3-yl]carbonyl]-L-tyrosine] | > 5 | – | 0.757 | –
